Assay results reported in patent US12138256B2, “Treatment of cardiopulmonary disorders” (Bayer Aktiengesellschaft, priority 2021, dated 2024).
Where “and” joins values, the source holds several entries; their conditions need not be identical. Equal entries are not always repeated.

Tested on: thromboxane analog U46619 induced PAH in minipigs
Experiment: Haemodynamics (PAP, BP) in the anesthetized thromboxane challenged PAH minipig after inhaled (nebulized) application (C-2.1)
Format: in vivo, Göttingen minipig
Settings: inhaled; for PAP % changes vs prevalue, mean: n = 3; for BP % change vs. baseline / PAP % change vs. baseline: individual animals
Method in brief: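 Anesthetized, ventilated Göttingen minipigs (2-6 kg) given continuous infusion (0.3-0.75 μg/kg/min) to raise mean PAP above 25 mmHg, dosing starting after a 30 min plateau. Compound in 1% DMSO/0.2% citric acid, pH 8, nebulized via Aeroneb Pro into the inspiratory arm (~7 min; stock 300 μg/kg). PAP by Swan-Ganz catheter, BP via carotid catheter.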

[1] = 100 μg/kg nominal dose, time 80 min
[2] = 100 μg/kg nominal dose, time 90 min
[3] = 100 μg/kg nominal dose, time 100 min
[4] = 100 μg/kg nominal dose, time 110 min
[5] = 100 μg/kg nominal dose, time 120 min
[6] = 100 μg/kg nominal dose, time 130 min
[7] = 100 μg/kg nominal dose, time 140 min
[8] = 100 μg/kg nominal dose, time 150 min
[9] = 100 μg/kg nominal dose, time 160 min
[10] = 100 μg/kg nominal dose, time 170 min
[11] = 100 μg/kg nominal dose, time 180 min

Compound: O=C(O)c1ccc(CCN(CCc2ccccc2OCc2ccc(-c3ccc(C(F)(F)F)cc3)cc2Cl)[C@H]2CCCc3nc(C(=O)O)ccc32)cc1 [comparative example 11, (5S)-5-{[2-(4-carboxyphenyl)ethyl][2-(2-{[3-chloro-4′-(trifluoromethyl)[biphenyl]-4-yl]methoxy}phenyl)ethyl]amino}-5,6,7,8-tetrahydroquinoline-2-carboxylic acid]
- PAP % changes vs prevalue, mean (10 μg/kg nominal dose, time 0 min): 0%
- PAP % changes vs prevalue, mean (10 μg/kg nominal dose, time 10 min): 0.6%
- PAP % changes vs prevalue, mean (10 μg/kg nominal dose, time 20 min): 0.2%
- PAP % changes vs prevalue, mean (10 μg/kg nominal dose, time 30 min): −0.7%
- PAP % changes vs prevalue, mean (10 μg/kg nominal dose, time 40 min): −1.5%
- PAP % changes vs prevalue, mean (10 μg/kg nominal dose, time 50 min): −2.3%
- PAP % changes vs prevalue, mean (10 μg/kg nominal dose, time 60 min): −3.5%
- PAP % changes vs prevalue, mean (10 μg/kg nominal dose, time 70 min): −4.2%
- PAP % changes vs prevalue, mean (10 μg/kg nominal dose, time 80 min): −3.7%
- PAP % changes vs prevalue, mean (10 μg/kg nominal dose, time 90 min): −4.3%
- PAP % changes vs prevalue, mean (10 μg/kg nominal dose, time 100 min): −5.3%
- PAP % changes vs prevalue, mean (10 μg/kg nominal dose, time 110 min): −6.2%
- PAP % changes vs prevalue, mean (10 μg/kg nominal dose, time 120 min): −6.7%
- PAP % changes vs prevalue, mean (10 μg/kg nominal dose, time 130 min): −6.2%
- PAP % changes vs prevalue, mean (10 μg/kg nominal dose, time 140 min): −7%
- PAP % changes vs prevalue, mean (10 μg/kg nominal dose, time 150 min): −7.6%
- PAP % changes vs prevalue, mean (10 μg/kg nominal dose, time 160 min): −7.6%
- PAP % changes vs prevalue, mean (10 μg/kg nominal dose, time 170 min): −8.2%
- PAP % changes vs prevalue, mean (10 μg/kg nominal dose, time 180 min): −8.0%
- PAP % changes vs prevalue, mean (10 μg/kg nominal dose, time 190 min): −7.8%
- PAP % changes vs prevalue, mean (10 μg/kg nominal dose, time 200 min): −7.3%
- PAP % changes vs prevalue, mean (10 μg/kg nominal dose, time 210 min): −7.5%
- PAP % changes vs prevalue, mean (10 μg/kg nominal dose, time 220 min): −7.2%
- PAP % changes vs prevalue, mean (10 μg/kg nominal dose, time 230 min): −7.2%
- PAP % changes vs prevalue, mean (10 μg/kg nominal dose, time 240 min): −7.6%
- PAP % changes vs prevalue, mean (30 μg/kg nominal dose, time 0 min): 0%
- PAP % changes vs prevalue, mean (30 μg/kg nominal dose, time 10 min): 0.3%
- PAP % changes vs prevalue, mean (30 μg/kg nominal dose, time 20 min): −2.0%
- PAP % changes vs prevalue, mean (30 μg/kg nominal dose, time 30 min): −4.6%
- PAP % changes vs prevalue, mean (30 μg/kg nominal dose, time 40 min): −7.8%
- PAP % changes vs prevalue, mean (30 μg/kg nominal dose, time 50 min): −9.8%
- PAP % changes vs prevalue, mean (30 μg/kg nominal dose, time 60 min): −11.8%
- PAP % changes vs prevalue, mean (30 μg/kg nominal dose, time 70 min): −14.1%
- PAP % changes vs prevalue, mean (30 μg/kg nominal dose, time 80 min): −14.2%
- PAP % changes vs prevalue, mean (30 μg/kg nominal dose, time 90 min): −14.4%
- PAP % changes vs prevalue, mean (30 μg/kg nominal dose, time 100 min): −14.8%
- PAP % changes vs prevalue, mean (30 μg/kg nominal dose, time 110 min): −15.3%
- PAP % changes vs prevalue, mean (30 μg/kg nominal dose, time 120 min): −15.3%
- PAP % changes vs prevalue, mean (30 μg/kg nominal dose, time 130 min): −15.5%
- PAP % changes vs prevalue, mean (30 μg/kg nominal dose, time 140 min): −15.3%
- PAP % changes vs prevalue, mean (30 μg/kg nominal dose, time 150 min): −16.3%
- PAP % changes vs prevalue, mean (30 μg/kg nominal dose, time 160 min): −16.3%
- PAP % changes vs prevalue, mean (30 μg/kg nominal dose, time 170 min): −14.9%
- PAP % changes vs prevalue, mean (30 μg/kg nominal dose, time 180 min): −14.7%
- PAP % changes vs prevalue, mean (30 μg/kg nominal dose, time 190 min): −15.1%
- PAP % changes vs prevalue, mean (30 μg/kg nominal dose, time 200 min): −15.3%
- PAP % changes vs prevalue, mean (30 μg/kg nominal dose, time 210 min): −13.8%
- PAP % changes vs prevalue, mean (30 μg/kg nominal dose, time 220 min): −13.6%
- PAP % changes vs prevalue, mean (30 μg/kg nominal dose, time 230 min): −12.8%
- PAP % changes vs prevalue, mean (30 μg/kg nominal dose, time 240 min): −13.4%
- PAP % changes vs prevalue, mean (100 μg/kg nominal dose, time 0 min): 0%
- PAP % changes vs prevalue, mean (100 μg/kg nominal dose, time 10 min): −2.1%
- PAP % changes vs prevalue, mean (100 μg/kg nominal dose, time 20 min): −7.2%
- PAP % changes vs prevalue, mean (100 μg/kg nominal dose, time 30 min): −14.6%
- PAP % changes vs prevalue, mean (100 μg/kg nominal dose, time 40 min): −18.1%
- PAP % changes vs prevalue, mean (100 μg/kg nominal dose, time 50 min): −22.2%
- PAP % changes vs prevalue, mean (100 μg/kg nominal dose, time 60 min): −25.1%
- PAP % changes vs prevalue, mean (100 μg/kg nominal dose, time 70 min): −27.0%
- BP % change vs. baseline [1]: 103.2% and 100.0% and 100.1%
- PAP % change vs. baseline [1]: 103.3% and 100.0% and 98.5%
- PAP % changes vs prevalue, mean [1]: −27.9%
- BP % change vs. baseline [2]: 98.8% and 98.2% and 100.1%
- PAP % change vs. baseline [2]: 98.8% and 102.2% and 99.6%
- PAP % changes vs prevalue, mean [2]: −28.9%
- BP % change vs. baseline [3]: 101.0% and 100.0% and 100.1%
- PAP % change vs. baseline [3]: 99.4% and 97.3% and 97.5%
- PAP % changes vs prevalue, mean [3]: −31.1%
- BP % change vs. baseline [4]: 98.8% and 99.1% and 98.2%
- PAP % change vs. baseline [4]: 94.0% and 90.4% and 94.4%
- PAP % changes vs prevalue, mean [4]: −30.8%
- BP % change vs. baseline [5]: 98.8% and 98.2% (2×)
- PAP % change vs. baseline [5]: 87.4% and 80.2% and 88.8%
- PAP % changes vs prevalue, mean [5]: −31.3%
- BP % change vs. baseline [6]: 98.8% and 98.2% and 99.2%
- PAP % change vs. baseline [6]: 84.3% and 75.6% and 86.1%
- PAP % changes vs prevalue, mean [6]: −31.2%
- BP % change vs. baseline [7]: 98.8% and 96.5% and 102.0%
- PAP % change vs. baseline [7]: 82.2% and 69.4% and 82.1%
- PAP % changes vs prevalue, mean [7]: −31.6%
- BP % change vs. baseline [8]: 97.7% and 95.6% and 103.0%
- PAP % change vs. baseline [8]: 80.0% and 67.4% and 77.3%
- PAP % changes vs prevalue, mean [8]: −31.1%
- BP % change vs. baseline [9]: 98.8% and 93.9% and 101.1%
- PAP % change vs. baseline [9]: 78.2% and 66.2% and 74.6%
- PAP % changes vs prevalue, mean [9]: −30.1%
- BP % change vs. baseline [10]: 98.8% and 95.6% and 99.2%
- PAP % change vs. baseline [10]: 78.1% and 65.9% and 72.4%
- PAP % changes vs prevalue, mean [10]: −31.1%
- BP % change vs. baseline [11]: 97.7% and 92.1% and 99.2%
- PAP % change vs. baseline [11]: 78.5% and 62.7% and 72.2%
- PAP % changes vs prevalue, mean [11]: −31.1%
- BP % change vs. baseline (100 μg/kg nominal dose, time 190 min): 98.8% and 91.2% and 96.3%
